Results on 4 compounds are retold here after patent US20070287844A1, “Novel Crystal of N-[3-(Formylamino)-4-Oxo-6-Phenoxy-4h-Chromene-7-Yl] Methanesulfonamide” (Toyama Chemical Co., Ltd., priority 2003, published 2007).

Structures are written as SMILES.

The series can be described thus: Influence of humidity: water content of crystals after standing at controlled relative humidity. The format is physicochemical. The note with it: 7 days, 25° C.; for Change of water content with rising relative humidity: 22 to 93% RH. The procedure: Test Example 1 Influence of Humidity After being allowed to stand the compounds of the present invention (T-614β, T-614γ and T-614 hydrate) and the compound disclosed as Example 5 in Japanese Patent Laid-Open No. 5-97840 (T-614α) under the relative humidity 22, 51, 75 and 93% RH for 7 days at 25° C., the water content of each crystal was measured.

Regarding `CS(=O)(=O)Nc1cc2occ(NC=O)c(=O)c2cc1Oc1ccccc1` [T-614 hydrate, N-[3-(formylamino)-4-oxo-6-phenoxy-4H-chromen-7-yl]methanesulfonamide], the “Change of water content with rising relative humidity” value was “almost kept unchanged” and the “Stability under a high humidity condition” value (“Stability” below) is “stable under a high humidity condition”. For the same compound, the “Water content (%)” value (relative humidity 22% RH) stood at 4.09%. The “Water content (%)” value (relative humidity 51% RH) came to 4.15%. For the same compound, the “Water content (%)” value (relative humidity 75% RH) amounted to 4.08%. For the same compound, the “Water content (%)” value (relative humidity 93% RH) is reported as 4.03%.

As to `CS(=O)(=O)Nc1cc2occ(NC=O)c(=O)c2cc1Oc1ccccc1` [T-614α, N-[3-(formylamino)-4-oxo-6-phenoxy-4H -chromen-7-yl]methanesulfonamide, reference compound], the “Change of water content with rising relative humidity” value is “increased with the rising of relative humidity”. Besides, the “Water content (%)” value (relative humidity 22% RH) is given as 0.30%. Also, the “Water content (%)” value (relative humidity 51% RH) came to 1.29%. Also, the “Water content (%)” value (relative humidity 75% RH) is on record as 2.88%. For the same compound, under “relative humidity 93% RH”, the “Water content (%)” value was 3.62%.

On to `CS(=O)(=O)Nc1cc2occ(NC=O)c(=O)c2cc1Oc1ccccc1` [T-614β, N-[3-(formylamino)-4-oxo-6-phenoxy-4H-chromen-7-yl]methanesulfonamide], for which the “Change of water content with rising relative humidity” value was “almost kept unchanged” and the “Stability” value is on record as “stable under a high humidity condition”. The “Water content (%)” value (relative humidity 22% RH) is 0.54%. The “Water content (%)” value (relative humidity 51% RH) is 0.25%. Besides, the “Water content (%)” value (relative humidity 75% RH) is listed as 0.21%. Also, under “relative humidity 93% RH”, the “Water content (%)” value stood at 0.18%.

`CS(=O)(=O)Nc1cc2occ(NC=O)c(=O)c2cc1Oc1ccccc1` [T-614γ, N-[3-(formylamino)-4-oxo-6-phenoxy-4H-chromen-7-yl]methanesulfonamide]: the “Change of water content with rising relative humidity” value is given as “almost kept unchanged” and the “Stability” value is recorded as “stable under a high humidity condition”. Further, the “Water content (%)” value (relative humidity 22% RH) was found to be 0.28%. In addition, for the setting “relative humidity 51% RH”, the “Water content (%)” value amounted to 0.33%. For the same compound, the “Water content (%)” value (relative humidity 75% RH) worked out at 0.52%. Under “relative humidity 93% RH”, the “Water content (%)” value came to 0.65%.
